Laboratory results taken from US20220241249A1, “PHARMACEUTICAL COMPOSITION AND KIT CONTAINING NOVEL PENAM DERIVATIVE OR SALT THEREOF AND ONE OR MORE COMPOUNDS SELECTED FROM beta-LACTAMASE INHIBITORY COMPOUND AND ANTIBACTERIAL COMPOUND OR SALTS THEREOF” (priority 2019, published 2022).
Read-outs that look alike come from different tables or passages of the source.

What was measured:
Assay type in all cases: cell-based
[1] = system: Carbapenem-resistant Acinetobacter A514 strain; test: MIC of test compound combined with a plurality of β-lactamase inhibitors
Protocol: (§1) By using a broth microdilution method, the combinational effect of a test compound and a plurality of β-lactamase inhibitors was evaluated.
(§2) The evaluation test for antibacterial activity was performed in the same manner as in Test Example 1.
(§3) As bacterial strains, Carbapenem-resistant Acinetobacter A514 and A515 strains were used.

[2] = system: Carbapenem-resistant Acinetobacter A515 strain; test: as above; details: for antibacterial activity in combination with two β-lactamase inhibitors: against all the bacterial strains (Acinetobacter A514 and A515), with SBT and AVI
Protocol: as §1, §2, §3

[3] = system: Klebsiella pneumoniae Y-1133 strain producing NDM-1, OXA-48, and CTX-M-15 (strain C); test: MIC of test compound alone or with β-lactamase inhibitor at 4 μg/mL
Protocol: (§4) By using a broth microdilution method, the combinational effect of a test compound and a β-lactamase inhibitor was evaluated.
as §2
Klebsiella pneumoniae Y-1133 strain producing NDM-1, OXA-48, and CTX-M-15 (hereinafter, called strain C),
(§5) An antibacterial activity evaluation test was performed in the same manner as in Test Example 6.
(§6) As the bacterial strain, the strains B, C, and D producing β-lactamase and a Klebsiella pneumoniae Y-1069 strain (hereinafter, called strain F) producing OXA-48 and CTX-M-15 were used.

[4] = system: Klebsiella pneumoniae Y-1020 strain producing KPC-3 and SHV-12 (strain B); test: as above; details: for MIC: Strain B; for antibacterial activity in combination with a β-lactamase inhibitor versus without: for all the bacterial strains (strains A to E), summary of Tables 43 to 47
Protocol: as §4, §2

[5] = system: Escherichia coli TK-3113 strain producing IMP-8 (strain D); test: as above
Protocol: as §4, §2
Escherichia coli TK-3113 strain producing IMP-8 (hereinafter, called strain D),
as §5, §6

[6] = system: Escherichia coli TK-1765 strain producing CMY-2 (strain E); test: as above
Protocol: as §4, §2
Escherichia coli TK-1765 strain producing CMY-2 (hereinafter, called strain E)

[7] = system: Pseudomonas aeruginosa ATCC27853 strain (Pseudomonas aeruginosa A); test: Combinational effect of test compound and antibacterial compound, checkerboard FIC index; details: for FIC index: Pseudomonas aeruginosa A, checkerboard; for combinational effect with other antibacterial compounds: main strains of Gram-negative bacteria, summary of Tables 40 to 42
Protocol: (§7) By using a broth microdilution method, the combinational effect of antibacterial activity of a test compound and an antibacterial compound was evaluated.
(§8) As bacterial strains, an Escherichia coli ATCC25922 strain (hereinafter, called Escherichia coli A), a Klebsiella pneumoniae ATCC13883 strain (hereinafter, called Klebsiella pneumoniae A), and a Pseudomonas aeruginosa ATCC27853 strain (hereinafter, called Pseudomonas aeruginosa A) were used.
(§9) The minimum inhibitory concentration (hereinafter, called MIC) was measured according to the Clinical and Laboratory Standards Institute (CLSI) standard method by using the following broth microdilution method.
(§10) The bacterial cells that had been cultured overnight on a Mueller Hinton agar medium were scraped off, suspended at a density equivalent to 0.5 McFarland standard. The obtained suspension was diluted at 10 fold, thereby obtaining an inoculum. Cation-adjusted Mueller Hinton media containing only a test compound, containing only an antibacterial compound, or containing a test compound and an antibacterial compound were inoculated with 0.005 mL of the inoculum, and the cells were cultured at 35° C. for 18 to 20 hours. The minimum drug concentration at which the growth of bacteria was not visually observed was defined as MIC (μg/mL).
(§11) The FIC Index is the minimum value calculated by the following formula.
(§12) FIC Index=(MIC value obtained in a case where test compound is used in combination/MIC value obtained in a case where test compound is used alone)+(MIC value obtained in a case where antibacterial compound is used in combination/MIC value obtained in a case where antibacterial compound is used alone)
(§13) In a case where the FIC Index was 0.5 or less, it was decided that the use of two drugs in combination brings about a synergistic effect.
(§14) In a case where the FIC Index was more than 0.5 and 1 or less, it was decided that the use of two drugs in combination brings about an additive effect. (Diagnostic Microbiology and Infectious Disease, 2004, Vol. 49, p. 197)

[8] = system: Klebsiella pneumoniae ATCC13883 strain (Klebsiella pneumoniae A); test: as above
Protocol: as §7, §8, §9, §10, §11, §12, §13, §14

[9] = system: Escherichia coli ATCC25922 strain (Escherichia coli A); test: as above
Protocol: as §7, §8, §9, §10, §11, §12, §13, §14

[10] = system: Escherichia coli TK-1747 strain producing CTX-M-15 (strain A); test: MIC of test compound alone or with β-lactamase inhibitor at 4 μg/mL
Protocol: as §4, §2
Escherichia coli TK-1747 strain producing CTX-M-15 (hereinafter, called strain A),

[11] = Table 48, against the Carbapenem-resistant Acinetobacter A514 and A515 strains (so in the source), read-out: MIC
[12] = Table 49, against the Carbapenem-resistant Acinetobacter A515 strain, read-out: MIC
[13] = test compound alone (β-lactamase inhibitor N/A)

NC(=O)[C@@H]1CC[C@@H]2CN1C(=O)N2OS(=O)(=O)O [AVI, avibactam sodium]
MIC [1, 11]: > 32 µg/mL
MIC [2, 12]: > 32 µg/mL

C[C@@H](O)[C@H]1C(=O)N2C(C(=O)O)=C(S[C@@H]3CN[C@H](C(=O)N(C)C)C3)[C@H](C)[C@H]12 [MEPM, meropenem hydrate, reference compound]
MIC [1, 11]: > 32 µg/mL
MIC [2, 12]: > 32 µg/mL
MIC ([3]; Klebsiella pneumoniae, test compound alone (β-lactamase inhibitor N/A)): > 128 µg/mL
MIC ([4]; Klebsiella pneumoniae, test compound alone (β-lactamase inhibitor N/A), read-out: MIC): 32 µg/mL

Nc1nc(/C(=N/OC2(C(=O)O)CCC2)C(=O)N[C@@H]2C(=O)N3C[C@@](C(=O)O)(N4CCN(NC(=O)C(=O)c5ccc(O)c(O)c5Cl)C4=O)S[C@H]23)cs1 [Compound B]
antibacterial activity in combination with two β-lactamase inhibitors [2]: High antibacterial activity
MIC ([5]; AVI added at 4 μg/mL): 0.25 µg/mL
MIC ([5]; NAC added at 4 μg/mL): <0.015 µg/mL
MIC ([5]; ZID added at 4 μg/mL): <0.015 µg/mL
MIC [5, 13]: 0.5 µg/mL
MIC [6, 13]: 1 µg/mL
MIC ([6]; with AVI at 4 μg/mL): 0.03 µg/mL
MIC ([6]; with SBT at 4 μg/mL): 0.5 µg/mL
MIC ([6]; with TAZ at 4 μg/mL): 0.12 µg/mL
MIC ([6]; with VAB at 4 μg/mL): 0.03 µg/mL
MIC ([3]; AVI added at 4 μg/mL): 0.12 µg/mL
MIC ([3]; NAC added at 4 μg/mL): <0.015 µg/mL
MIC ([3]; ZID added at 4 μg/mL): <0.015 µg/mL
MIC [3, 13]: 1 µg/mL
MIC ([4]; AVI added at 4 μg/mL): 0.25 µg/mL
MIC ([4]; NAC added at 4 μg/mL): <0.015 µg/mL
MIC ([4]; VAB added at 4 μg/mL): <0.015 µg/mL
MIC ([4]; ZID added at 4 μg/mL): <0.015 µg/mL
MIC [4, 13]: 2 µg/mL
antibacterial activity in combination with a β-lactamase inhibitor versus without [4]: higher antibacterial activity
FIC index ([7]; in combination with AMK): 0.375
FIC index ([7]; in combination with CAZ): 0.563
FIC index ([7]; in combination with IPM): 0.5
FIC index ([7]; in combination with LVFX): 0.625
FIC index ([7]; in combination with PIPC): 0.375
FIC index ([7]; in combination with PL-B): 0.531
FIC index ([7]; in combination with RFP): 0.313
FIC index ([7]; in combination with TMP): 0.502
combinational effect with other antibacterial compounds [7]: additive or synergistic effect
FIC index ([8]; in combination with AMK): 0.75
FIC index ([8]; in combination with CAZ): 0.625
FIC index ([8]; in combination with IPM): 0.375
FIC index ([8]; in combination with LVFX): 0.563
FIC index ([8]; in combination with MPC): <0.375
FIC index ([8]; in combination with PIPC): <0.5
FIC index ([8]; in combination with PL-B): 0.156
FIC index ([8]; in combination with RFP): 0.281
FIC index ([8]; in combination with TMP): 0.375
FIC index ([9]; in combination with CAZ): 0.625
FIC index ([9]; in combination with MPC): 0.508
FIC index ([9]; in combination with PIPC): 0.53
FIC index ([9]; in combination with RFP): 0.531
FIC index ([9]; in combination with TMP): 0.531

CC(C)(O/N=C(\C(=O)N[C@@H]1C(=O)N2C[C@@](C(=O)O)(N3CCN(NC(=O)C(=O)c4ccc(O)c(O)c4Cl)C3=O)S[C@H]12)c1csc(N)n1)C(=O)O [Compound A]
antibacterial activity in combination with two β-lactamase inhibitors [2]: High antibacterial activity
MIC ([10]; AVI added at 4 μg/mL): <0.015 µg/mL
MIC ([10]; CVA added at 4 μg/mL): <0.015 µg/mL
MIC ([10]; NAC added at 4 μg/mL): <0.015 µg/mL
MIC ([10]; SBT added at 4 μg/mL): <0.015 µg/mL
MIC ([10]; TAZ added at 4 μg/mL): <0.015 µg/mL
MIC ([10]; VAB added at 4 μg/mL): 0.06 µg/mL
MIC ([10]; ZID added at 4 μg/mL): <0.015 µg/mL
MIC [10, 13]: 0.12 µg/mL
MIC ([5]; NAC added at 4 μg/mL): 0.06 µg/mL
MIC ([5]; ZID added at 4 μg/mL): <0.015 µg/mL
MIC [5, 13]: 0.5 µg/mL
MIC [6, 13]: 1 µg/mL
MIC ([6]; with AVI at 4 μg/mL): 0.06 µg/mL
MIC ([6]; with SBT at 4 μg/mL): 0.5 µg/mL
MIC ([6]; with TAZ at 4 μg/mL): 0.25 µg/mL
MIC ([6]; with VAB at 4 μg/mL): 0.12 µg/mL
MIC ([3]; AVI added at 4 μg/mL): 0.12 µg/mL
MIC ([3]; NAC added at 4 μg/mL): 0.03 µg/mL
MIC ([3]; ZID added at 4 μg/mL): <0.015 µg/mL
MIC [3, 13]: 0.5 µg/mL
MIC ([4]; AVI added at 4 μg/mL): 0.25 µg/mL
MIC ([4]; NAC added at 4 μg/mL): <0.015 µg/mL
MIC ([4]; VAB added at 4 μg/mL): 1 µg/mL
MIC ([4]; ZID added at 4 μg/mL): <0.015 µg/mL
MIC [4, 13]: 2 µg/mL
antibacterial activity in combination with a β-lactamase inhibitor versus without [4]: higher antibacterial activity
FIC index ([7]; in combination with AMK): 0.5
FIC index ([7]; in combination with CAZ): 0.5625
FIC index ([7]; in combination with IPM): 0.252
FIC index ([7]; in combination with LVFX): 0.5625
FIC index ([7]; in combination with PIPC): 0.5
FIC index ([7]; in combination with PL-B): 0.625
FIC index ([7]; in combination with RFP): 0.281
FIC index ([7]; in combination with TC): 0.375
combinational effect with other antibacterial compounds [7]: additive or synergistic effect
FIC index ([8]; in combination with CAZ): 0.625
FIC index ([8]; in combination with IPM): 0.375
FIC index ([8]; in combination with LVFX): 0.75
FIC index ([8]; in combination with MPC): <0.5
FIC index ([8]; in combination with PIPC): 0.375
FIC index ([8]; in combination with PL-B): 0.125
FIC index ([8]; in combination with RFP): 0.502
FIC index ([8]; in combination with TMP): 0.375
FIC index ([9]; in combination with AMK): 0.5625
FIC index ([9]; in combination with CAZ): 0.625
FIC index ([9]; in combination with IPM): 0.5156
FIC index ([9]; in combination with LVFX): 0.75
FIC index ([9]; in combination with MPC): 0.5078
FIC index ([9]; in combination with PIPC): 0.5625
FIC index ([9]; in combination with RFP): 0.625
FIC index ([9]; in combination with TC): 0.75
FIC index ([9]; in combination with TMP): 0.625

CC1(C)[C@H](C(=O)O)N2C(=O)C[C@H]2S1(=O)=O [SBT, sulbactam sodium]
MIC ([1]; Acinetobacter): > 32 µg/mL
MIC ([2]; Acinetobacter): > 32 µg/mL
